Data published in patent US9226517B2, “Use of iminocyclitols as inhibitors of bacterial adherence to epithelial cells” (Taihua Shouyue (Hong Kong) International Co Limited, priority 2010, dated 2016).
Values joined by “and” are separate entries in the source; they are usually repeats but may differ in a detail not shown here. Identical values can stand only once.

How the values were obtained:
S. mutans = conditions: Islam et al. 2008; compound isolated from M. alba; cited from earlier work
Escherichia coli [1] = test: Bacterial agglutination assay; assay type: cell-based; conditions: for agglutination relative to the corresponding positive control: positive control mannose 0.05M
Description: (§1) Bacteria used in the assay were Escherichia coli, Salmonella tphimurium and Streptococcus mutans, from over night cultures. The bacteria were inoculated in the 100 ml flask with Luria medium. The bacteria were grown for 24 h at 37° C. After incubation, Agar Luria medium plates were inoculated. After 24 h suspensions of each strain were prepared in PBS medium (10^8 CFU/ml). Serial dilutions of the products to be tested, D-fagomine and D-fagomine tartrate (20 ppm, 200 ppm, 2000 ppm) were made. The dilutions were mixed with bacterial suspensions in a 1:1 ratio. After 90 min. at room temperature the suspensions were observed under optical microscope. They were compared with the control culture without any product added.
(§2) Bacteria used in the assay were Escherichia coli, Salmonella tphimurium, Streptococcus mutans, Lactobacillus casei and Bifidobacterium sp., from over night cultures. The bacteria were inoculated in the 100 ml flask with Luria medium. The bacteria were grown for 24 h at 37° C. After incubation, Agar Luria medium plates were inoculated. After 24 h suspensions of each strain were prepared in PBS medium (10^8 CFU/ml). Serial dilutions of the product to be tested, D-fagomine tartrate (10 ppm, 20 ppm, 2000 ppm) were made. The dilutions were mixed with bacterial suspensions in a 1:1 ratio. After 90 min. at room temperature the suspensions were observed under optical microscope. They were compared with the control culture without any product added. The Escherichia coli and Salmonella tphimurium were compared with a positive control culture (mannose 0.05M).

Salmonella tphimurium = test: Bacterial agglutination assay; assay type: cell-based; conditions: for agglutination relative to the corresponding positive control: positive control mannose 0.05M
Description: as §1, §2

Streptococcus mutans [2] = test: Bacterial agglutination assay; assay type: cell-based
Description: as §1, §2

Lactobacillus casei = test: Bacterial agglutination assay; assay type: cell-based; conditions: Example 2; 90 min room temperature
Description: as §2

Bifidobacterium sp. = test: Bacterial agglutination assay; assay type: cell-based; conditions: Example 2; 90 min room temperature
Description: as §2

Streptococcus mutans [3] = test: Glass surface adherence assay; assay type: cell-based; conditions: for G/MG (Glass/Mannose glass): vs mannose 0.05 M
Description: Glass surface adherence assay was performed. The bacterium used in the assay was Streptococcus mutans from over night cultures (1 10^10 UCF/ml). The bacterium was grown for 18 h at 37° C. in PBS medium. The bacteria from the overnight culture (0.25 ml) were grown for 18 h at […] in a glass dish with the specific medium (0.5 ml). After the 18 h, 0.25 ml of D-fagomine (10 ppm, 20 ppm and 40 ppm) was added. In the control plate was added only PBS. After 90 min. the cells were transfered (0.5 ml) to a falcon tube, then were washed two times with PBS (0.5 ml each time). The wash of each bacteria was collected in a falcon tube and was kept at 4° C. The cells (100 μl) were seeded in the plates in TSA medium. The cells adhered were scrapped. In each well, it was added 0.5 ml of sterile PBS. The plaques with 100 μl were inoculated. The plaques were counted.

[4] = Castillo et al., Organic Letter 2006; cited from earlier work
Escherichia coli [5] = test: Adhesion to mucus (mucosal epitelial cells); assay type: cell-based; conditions: for Bacteria in supernatant: duplicates 1 and 2
Description: (§3) • Mucus: mucosal epitelial cells • Adhesion to mucus. Protocol Day 1
(§4) The bacteria was inoculated in the tube, with 3 ml Luria medium. The bacteria were grown for 24 h at 37° C. The tube was incubated overnight (1 10^8-1 10^9 UCF/ml).
(§5) The mucus (1 ml) is defrosted at room temperature. PBS medium (100 ml) was prepared. The defrosted mucus was centrifuged at 8000 rpm for 10 minutes. The mucus (1 ml) was transferred to an aliquot with sterile PBS (99 ml) (1:100). Each well is inoculated with 2.5 ml from the mixture and the plate is kept in the fridge (4° C.) overnight.
(§6) The plate was taken out from the fridge. 2 ml was extracted from each well. PBS (1 ml) was added, then was extracted, at the end there was 0.5 ml in the well.
(§7) The tubes that were grown overnight were diluted (1 10^7 UCF/ml).
(§8) The final volume in each well was: PBS 0.5 ml plus bacterial suspension 0.5 ml plus D-fagomine 0.5 ml (or PBS in control case).
(§9) Two plates were prepared (duplicated strains). Product concentration in the wells (10 ppm, 20 ppm, 40 pppm). Mannose concentration 0.05M (control well).
(§10) The wells were inoculated and the plates were incubated at 37° C. for 90 minutes.
(§11) After the 90 minutes, the supernatant of each well (10 μl) were observed under optical microscope.
(§12) It was added 1 ml of each well in eppendorfs. The eppendords were kept on the fridge. Two wash were made with PBS. The wells washed of the same strain were recoleted in a falcon tube and they were kept at 4° C. PBS (1 ml) was added in each well and the plates were inoculated with 100 μl of each tubes at the adecuated dilutions.
(§13) The plates were recounted

Salmonella = test: Adhesion to mucus (mucosal epitelial cells); assay type: cell-based
Description: as §3, §4, §5, §6, §7, §8, §9, §10, §11, §12, §13

Bifidobacterium = test: Adhesion to mucus; assay type: cell-based
Description: (§14) • Adhesion to mucus. Protocol Day 1
(§15) The bacteria was inoculated in the tube with 3 ml Luria medium. The bacteria were grown for 24 h at 37° C. The tube was incubated overnight (1 10^7-1 10^8 UCF/ml).
(§16) The mucus (1 ml) is defrosted at room temperature. 100 ml of PBS medium was prepared. The defrosted mucus (1 ml) was centrifuged at 8000 rpm for 10 minutes. The mucus (1 ml) was transferred to an aliquot with sterile PBS (99 ml). Each well is inoculated with 2.5 ml from the mixture and the plate is kept in the fridge (4° C.) overnight.
(§17) The plate was taken out from the fridge an the wash was made. 2 ml was extracted from each well. PBS (1 ml) was added, then was extracted, at the end there was 0.5 ml in the well.
(§18) The tubes that were grown overnight, were diluted (1 10^7 UCF/ml).
(§19) The final volume in each well was: PBS 0.5 ml plus bacterial suspension 0.5 ml plus D-fagomine 0.5 ml (or PBS in control case). It was prepared 2 plates (duplicated strains). Product concentration in the wells (10 ppm, 20 ppm, 40 pppm). Mannose concentration 0.05M (control well). The wells were inoculated and the plates were incubated at 37° C. for 90 minutes. After the 90 minutes, the supernatant of each well (10 μl) were observed under optical microscope. It was added 1 ml of each well in eppendorfs. The eppendords were kept on the fridge. Two wash were made with PBS. The wells washes of the same strain were recoleted in a falcon tube and they were kept at 4° C. PBS (1 ml) was added in each well and the plates were inoculated with 100 μl of each tubes at the adecuated dilutions.
as §13

[6] = system: Lactobacillus acidophilus; test: Adhesion to mucus; assay type: cell-based
Description: as §14, §15, §16, §17, §18, §19, §13

[7] = Example 1, 20 ppm, 200 ppm and 2000 ppm, 90 min room temperature, vs control culture
[8] = Example 2, 20 ppm and 200 ppm, 90 min room temperature
[9] = independently of the D-fagomine concentration (10, 20, 40 ppm)
[10] = D-fagomine 40 ppm, duplicates 1 and 2

OC[C@H]1NC[C@H](O)[C@@H](O)[C@@H]1O [1-deoxynojirimycin]
anti-microbial activity against S. mutans (S. mutans): anti-microbial activity

O=C(O)C(O)C(O)C(=O)O.OC[C@H]1NCC[C@@H](O)[C@@H]1O [D-fagomine tartrate]
agglutination relative to the corresponding positive control (Escherichia coli [1]; 20 ppm): about 60%
agglutination relative to the corresponding positive control (Escherichia coli [1]; 200 ppm): about 70%
agglutination of the cells (optical microscope) (Escherichia coli [1]; [7]): agglutinated
agglutination of the cells (optical microscope) (Escherichia coli [1]; Example 2, 10 ppm): not at 10 ppm
agglutination of the cells (optical microscope) (Escherichia coli [1]; [8]): agglutinated
agglutination relative to the corresponding positive control (Salmonella tphimurium; 20 ppm): about 60%
agglutination relative to the corresponding positive control (Salmonella tphimurium; 200 ppm): about 70%
agglutination of the cells (optical microscope) (Salmonella tphimurium; [7]): agglutinated
agglutination of the cells (optical microscope) (Salmonella tphimurium; Example 2, 10 ppm): not at 10 ppm
agglutination of the cells (optical microscope) (Salmonella tphimurium; [8]): agglutinated
agglutination of the cells (optical microscope) (Streptococcus mutans [2]; [7]): agglutinated
agglutination of the cells (optical microscope) (Streptococcus mutans [2]; Example 2, 10 ppm): not at 10 ppm
agglutination of the cells (optical microscope) (Streptococcus mutans [2]; [8]): agglutinated
agglutination of the cells (optical microscope) (Lactobacillus casei): not agglutinated
agglutination of the cells (optical microscope) (Bifidobacterium sp.): not agglutinated

OC[C@H]1NCC[C@@H](O)[C@@H]1O [D-fagomine, (2R, 3R, 4R)-2-hydroxymethylpiperidine-3,4-diol]
antiadherence activity in respect of the control (Streptococcus mutans [3]; 10 ppm, 20 ppm and 40 ppm): has antiadherence activity
PG/CG (Product glass/Control glass without product) (Streptococcus mutans [3]; D-fagomine 10 ppm): 1.60
G/MG (Glass/Mannose glass) (Streptococcus mutans [3]; D-fagomine 10 ppm): 1.60
G/MG (Glass/Mannose glass) (Streptococcus mutans [3]; D-fagomine 20 ppm): 1.35
agglutination of the cells (optical microscope) (Escherichia coli [1]; [7]): agglutinated
agglutination of the cells (optical microscope) (Salmonella tphimurium; [7]): agglutinated
agglutination of the cells (optical microscope) (Streptococcus mutans [2]; [7]): agglutinated
antimicrobial activity [4]: do not show antimicrobial activity
Bacteria in supernatant (Escherichia coli [5]; D-fagomine 10 ppm): 94.5% and 95.1%
Bacteria in supernatant (Escherichia coli [5]; D-fagomine 20 ppm): 96.3% and 99.0%
Bacteria in supernatant (Escherichia coli [5]; D-fagomine 40 ppm): 99.2% and 98.6%
agglutination of microorganisms with the mucus (Escherichia coli [5]; [9]): not agglutinated with the mucus
Bacteria in supernatant (Salmonella; D-fagomine 10 ppm, duplicates 1 and 2): 78.4% and 91.8%
Bacteria in supernatant (Salmonella; D-fagomine 20 ppm, duplicates 1 and 2): 98.2% and 95.5%
Bacteria in supernatant (Salmonella; [10]): 98.2% and 84.1%
Supernatant/mucus (Salmonella; [10]): 5.27 UCF/ml
agglutination of microorganisms with the mucus (Salmonella; [9]): not agglutinated with the mucus
Product M/Control M (Bifidobacterium; D-fagomine 20 ppm): 1.14
Product M/Control M (Bifidobacterium; D-fagomine 40 ppm): 3.50
M/Manose M ([6]; D-fagomine 10 ppm): 1.31
Product M/Control M ([6]; D-fagomine 10 ppm): 5.58
M/Manose M ([6]; D-fagomine 20 ppm): 1.31
Product M/Control M ([6]; D-fagomine 20 ppm): 5.58
Product M/Control M ([6]; D-fagomine 40 ppm): 3.94
